Measured values taken from PubChem BioAssay AID1963862 (Molecular Pharmacology Branch, DTP, NCI, 2024).

System: KRAS patient-derived spheroids with HUVEC/MSC, viability
Test: Anticancer human tumor 941728-121-R-J1-PDC patient-derived lung adenocarcinoma cell line growth inhibition [KRAS2]
Settings: for IC50: curve of first compound; for viability, T/C: stronger effect = lower value
Excerpt: Multicellular complex tumor spheroid response to RAS pathway inhibitors in combination with a targeted agents in patient-derived cell lines with oncogenic KRAS variants from multiple cancer types
A high-throughput screen of multi-cell type tumor spheroids was designed to identify active combinations of targeted small molecules and KRAS pathway inhibitors. Complex spheroids include a stromal component modeled by human endothelial cells (HUVEC) and fibroblasts modeled by human mesenchymal stem cells (MSCs). The concentration ranges selected for each drug and investigational agent were based upon clinically achievable concentrations if the clinical Cmax of the agent was known.
Compounds. The drugs and investigational agents: BI-3406 (NSC825286), BAY-293 (NSC824723), batoprotafib (TNO155; NSC825523), sotorasib (AMG 510; NSC818433), MRTX1257 (NSC819558), elimusertib (BAY 1895344; NSC800525), molibresib (GSK525762; NSC774829), temuterkib (LY3214996; NSC803410), venetoclax (NSC766270), alisertib (NSC759677), olaparib (NSC753686), talazoparib (NSC767125), erdafitinib (NSC781556), ipatasertib (NSC767898), cabozantinib (NSC761068), nintedanib (NSC756659), abemaciclib (NSC768073), docetaxel (NSC628503), trametinib (NSC758246), and sapanisertib (NSC764658) were obtained from the National Cancer Institute (NCI) Developmental Therapeutics Program Chemical Repository. The FDA-approved anticancer drug set is available from the Developmental Therapeutics Program. […] The stock solutions were prepared in dimethyl sulfoxide (DMSO, Sigma-Aldrich, St. Louis, MO, cat. D2650) at 800-fold the tested concentration and stored at -70 degrees C prior to their use. All drugs and investigational agents were tested over a range starting from a high concentration at or near the clinical Cmax and decreasing in half-log increments. If the clinical Cmax for an agent had not been determined, the highest concentration tested was 10 microM.
Cell Culture. All cells were maintained in an incubator at 37 degrees C and 5% CO2 with 95% humidity. The PDC lines were cultured according to standard operating procedures established by the NCI PDMR (https://pdmr.cancer.gov/sops/default.htm). Briefly, all PDCs were thawed and cultured in Matrigel-coated flasks prepared with a working solution of 1X Ham's F-12 nutrient mix, without supplementation (Invitrogen, Waltham, MA, cat. 11765054), 100 U/mL penicillin-streptomycin (Invitrogen, cat. 15140122), and 2.5% Matrigel (Corning Inc., Corning, NY, cat. 354248) for the first three passages. All PDCs were cultured in complete DMEM/F-12 media containing advanced DMEM/F-12 (Invitrogen, cat. 12634028), 4.9% defined fetal bovine serum, heat inactivated (HyClone Laboratories Inc., Logan, UT, cat. SH30070.03HI), 389 ng/mL hydrocortisone (Sigma-Aldrich, cat. H4001), 9.7 ng/mL human EGF recombinant protein (Invitrogen, cat. PHG0313), 23.4 microg/mL adenine (Sigma-Aldrich, cat. A2786), 97.3 U/mL penicillin-streptomycin (Invitrogen, cat. 15140122), 1.9 mM L-glutamine (Invitrogen, cat. 25030081), and 9.7 microM Y-27632 dihydrochloride (Tocris Bioscience, Bristol, United Kingdom, cat. 1254). The PDCs were cultured in complete DMEM/F12 media without 9.7 microM Y-27632 dihydrochloride for at least two passages prior to the screen. The established cell line HOP-62 was cultured in RPMI 1640 medium, HEPES (Invitrogen, cat. 22400105) with 10% defined fetal bovine serum (HyClone Laboratories Inc., cat. SH30070.03) and 2 mM L-glutamine (Invitrogen, cat. 25030081). The pooled donor HUVEC were cultured in endothelial cell growth medium 2 (PromoCell, Heidelberg, Germany, cat. C-22011) and the hMSC were cultured in mesenchymal stem cell growth medium 2 (PromoCell, cat. C-28009). For all experiments, HUVEC and hMSC were used at passages </=5, while the malignant cell lines were used at passages </=15. […]

[1] = second compound 0.0316 µM, first compound 0.0316 µM
[2] = second compound 0.1 µM, first compound 0.000316 µM
[3] = second compound 0.1 µM, first compound 0.001 µM
[4] = second compound 0.1 µM, first compound 0.00316 µM
[5] = second compound 0.1 µM, first compound 0.01 µM
[6] = second compound 0.1 µM, first compound 0.0316 µM
[7] = second compound 0.316 µM, first compound 0.000316 µM
[8] = second compound 0.316 µM, first compound 0.001 µM
[9] = second compound 0.316 µM, first compound 0.00316 µM
[10] = second compound 0.316 µM, first compound 0.01 µM
[11] = second compound 0.316 µM, first compound 0.0316 µM
[12] = second compound 1 µM, first compound 0.000316 µM
[13] = second compound 1 µM, first compound 0.001 µM
[14] = second compound 1 µM, first compound 0.00316 µM
[15] = second compound 1 µM, first compound 0.01 µM
[16] = second compound 1 µM, first compound 0.0316 µM
[17] = second compound 3.16 µM, first compound 0.000316 µM
[18] = second compound 3.16 µM, first compound 0.001 µM
[19] = second compound 3.16 µM, first compound 0.00316 µM
[20] = second compound 3.16 µM, first compound 0.01 µM
[21] = second compound 3.16 µM, first compound 0.0316 µM
[22] = second compound 0.1 µM, first compound 0.1 µM
[23] = second compound 0.316 µM, first compound 0.1 µM
[24] = second compound 1 µM, first compound 0.1 µM
[25] = second compound 3.16 µM, first compound 0.1 µM
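Further: spheroids exposed to agents for seven days before readout.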

## CC(=O)Nc1cccc(-n2c(=O)n(C3CC3)c(=O)c3c(Nc4ccc(I)cc4F)n(C)c(=O)c(C)c32)c1 + C=CC(=O)N1CCN(c2nc(OCC3CCCN3C)nc3c2CCN(c2cccc4cccc(C)c24)C3)CC1CC#N
Second compound 0.0316 µM
  IC50: < 0.1 nM
Second compound 0.1 µM
  IC50: < 0.1 nM
Second compound 0.316 µM
  IC50: < 0.1 nM
Second compound 1 µM
  IC50: < 0.1 nM
Second compound 3.16 µM
  IC50: < 0.1 nM
Second compound 0.0316 µM, first compound 0.0001 µM
  viability, T/C: 31%
Second compound 0.0316 µM, first compound 0.000316 µM
  viability, T/C: 26.4%
Second compound 0.0316 µM, first compound 0.001 µM
  viability, T/C: 25.9%
Second compound 0.0316 µM, first compound 0.00316 µM
  viability, T/C: 25.4%
Second compound 0.0316 µM, first compound 0.01 µM
  viability, T/C: 24.2%
[1]
  viability, T/C: 25.1%
Second compound 0.1 µM, first compound 0.0001 µM
  viability, T/C: 30.9%
[2]
  viability, T/C: 26.7%
[3]
  viability, T/C: 25.4%
[4]
  viability, T/C: 25.5%
[5]
  viability, T/C: 21.2%
[6]
  viability, T/C: 22%
Second compound 0.316 µM, first compound 0.0001 µM
  viability, T/C: 29.2%
[7]
  viability, T/C: 27.2%
[8]
  viability, T/C: 23.4%
[9]
  viability, T/C: 24.1%
[10]
  viability, T/C: 22.1%
[11]
  viability, T/C: 22.9%
Second compound 1 µM, first compound 0.0001 µM
  viability, T/C: 24%
[12]
  viability, T/C: 22.9%
[13]
  viability, T/C: 19%
[14]
  viability, T/C: 21.3%
[15]
  viability, T/C: 20%
[16]
  viability, T/C: 22.6%
Second compound 3.16 µM, first compound 0.0001 µM
  viability, T/C: 0.84%
[17]
  viability, T/C: 0.35%
[18]
  viability, T/C: 1.24%
[19]
  viability, T/C: 0.89%
[20]
  viability, T/C: 1.14%
[21]
  viability, T/C: 0.53%

## O=C(c1cc(Cc2n[nH]c(=O)c3ccccc23)ccc1F)N1CCN(C(=O)C2CC2)CC1 + C=CC(=O)N1CCN(c2nc(OCC3CCCN3C)nc3c2CCN(c2cccc4cccc(C)c24)C3)CC1CC#N
Second compound 0.0316 µM
  IC50: < 31.6 nM
Second compound 0.1 µM
  IC50: < 31.6 nM
Second compound 0.316 µM
  IC50: < 31.6 nM
Second compound 1 µM
  IC50: < 31.6 nM
Second compound 3.16 µM
  IC50: < 31.6 nM
[1]
  viability, T/C: 36.5%
Second compound 0.0316 µM, first compound 0.1 µM
  viability, T/C: 36.5%
Second compound 0.0316 µM, first compound 0.316 µM
  viability, T/C: 59.6%
Second compound 0.0316 µM, first compound 1 µM
  viability, T/C: 29.1%
Second compound 0.0316 µM, first compound 3.16 µM
  viability, T/C: 26.9%
Second compound 0.0316 µM, first compound 10 µM
  viability, T/C: 36.2%
[6]
  viability, T/C: 32.3%
[22]
  viability, T/C: 33.3%
Second compound 0.1 µM, first compound 0.316 µM
  viability, T/C: 30.5%
Second compound 0.1 µM, first compound 1 µM
  viability, T/C: 32.5%
Second compound 0.1 µM, first compound 3.16 µM
  viability, T/C: 30.6%
Second compound 0.1 µM, first compound 10 µM
  viability, T/C: 35.4%
[11]
  viability, T/C: 36.1%
[23]
  viability, T/C: 33.7%
Second compound 0.316 µM, first compound 0.316 µM
  viability, T/C: 33.3%
Second compound 0.316 µM, first compound 1 µM
  viability, T/C: 33.7%
Second compound 0.316 µM, first compound 3.16 µM
  viability, T/C: 33.9%
Second compound 0.316 µM, first compound 10 µM
  viability, T/C: 34.2%
[16]
  viability, T/C: 32.6%
[24]
  viability, T/C: 36.2%
Second compound 1 µM, first compound 0.316 µM
  viability, T/C: 35.2%
Second compound 1 µM, first compound 1 µM
  viability, T/C: 32.8%
Second compound 1 µM, first compound 3.16 µM
  viability, T/C: 32%
Second compound 1 µM, first compound 10 µM
  viability, T/C: 35.7%
[21]
  viability, T/C: 0.38%
[25]
  viability, T/C: 4.45%
Second compound 3.16 µM, first compound 0.316 µM
  viability, T/C: 1.13%
Second compound 3.16 µM, first compound 1 µM
  viability, T/C: 0.34%
Second compound 3.16 µM, first compound 3.16 µM
  viability, T/C: 0.38%
Second compound 3.16 µM, first compound 10 µM
  viability, T/C: 0.53%

## CC(C)n1nc(-c2ccc3oc(N)nc3c2)c2c(N)ncnc21 + COc1cc2nc(C)nc(NC(C)c3cc(N)cc(C(F)(F)F)c3)c2cc1OC1CCOC1
Second compound 0.1 µM
  IC50: < 0.316 nM
Second compound 0.316 µM
  IC50: < 0.316 nM
Second compound 1 µM
  IC50: < 0.316 nM
Second compound 3.16 µM
  IC50: < 0.316 nM
Second compound 10 µM
  IC50: < 0.316 nM
[2]
  viability, T/C: 41.2%
[3]
  viability, T/C: 47.9%
[4]
  viability, T/C: 40.9%
[5]
  viability, T/C: 33.3%
[6]
  viability, T/C: 31%
[22]
  viability, T/C: 28.3%
[7]
  viability, T/C: 42.4%
[8]
  viability, T/C: 50%
[9]
  viability, T/C: 40.4%
[10]
  viability, T/C: 24.3%
[11]
  viability, T/C: 24.9%
[23]
  viability, T/C: 16.7%
[12]
  viability, T/C: 40.8%
[13]
  viability, T/C: 37%
[14]
  viability, T/C: 26.1%
[15]
  viability, T/C: 19.8%
[16]
  viability, T/C: 19.9%
[24]
  viability, T/C: 12.8%
[17]
  viability, T/C: 31.4%
[18]
  viability, T/C: 31.9%
[19]
  viability, T/C: 18.5%
[20]
  viability, T/C: 15%
[21]
  viability, T/C: 12.6%
[25]
  viability, T/C: 4.73%
Second compound 10 µM, first compound 0.000316 µM
  viability, T/C: 7.59%
Second compound 10 µM, first compound 0.001 µM
  viability, T/C: 6.39%
Second compound 10 µM, first compound 0.00316 µM
  viability, T/C: 2.23%
Second compound 10 µM, first compound 0.01 µM
  viability, T/C: 2.22%
Second compound 10 µM, first compound 0.0316 µM
  viability, T/C: 0.71%
Second compound 10 µM, first compound 0.1 µM
  viability, T/C: 4.65%
